In patent publication EP4523686A1, “A SIGMA-1 RECEPTOR POSITIVE MODULATOR FOR ITS USE IN THE PREVENTION AND THE TREATMENT OF A PATHOLOGY” (priority 2023, dated 2025):

Key:
[1] = system: wfs1ab^KO zebrafish larvae; assay: Visual motor response in zebrafish larvae (hyperlocomotor response); assay type: in vivo; details: at 3 µM in fish water
Experimental: The visual motor response assay quantifies the locomotor activity of the zebrafish larvae to light intensity changes. The protocol was previously described (Crouzier et al., 2021a, 2021b, 2022). In brief, 5 dpf larvae were transfered in a 96-well plate (#7701-1651, Whatman) with 300 µl of fish water and placed in a Zebrabox® (ViewPoint, Lissieu, France). The locomotor behavior was monitored using an automated videotracking device equipped with an infra-red (IR) camera under IR light illumination (Zebralab®, Viewpoint). The light protocol was as follow: 30 min of acclimatization in the dark (0% light intensity), then 2 cycles of 10-min duration light ON and 10-min duration light OFF periods. The brightness changes were immediate (<< 1 s). The activity was measured in mm/s. For each larva, the mobility were calculated as mean (OFF-ON) values to account for inter- and intra-group variability in locomotor response.
A phenotypic test described by Crouzier et al. (2022) was performed. […] Compounds were added in the fish water of larvae at 4 dpf for 24 h, and screening parameters included: (1) the lack of toxicity (including grossly observable morphological alterations) after 24 h exposure; (2) the locomotor increase in wfs1ab^KO larvae, expressed as % of V-treated wfs1ab^KO response; (3) the eventual alteration of locomotion in wfs1ab^WT larvae, expressed as % of V-treated wfs1ab^WT response; and (4) the Protection index (PI) calculated as detailed in the Methods section.

[2] = system: Dizocilpine-induced learning impairments in mice; assay: Spontaneous alternation in the Y-maze, Dizocilpine-induced learning impairments; assay type: in vivo; details: at the highest dose tested (range 0.1-3 mg/kg IP)
Experimental: The Y-maze is made of grey polyvinylchloride. Each arm is 40 cm long, 13 cm high, 3 cm wide at the bottom, 10 cm wide at the top, and converging at an equal angle. Each mouse was placed at the end of one arm and allowed to move freely through the maze during an 8 min session. The series of arm entries, including possible returns into the same arm, were checked visually. An alternation is defined as entries into all three arms on consecutive occasions. The number of maximum alternations is therefore the total number of arm entries minus two and the percentage of alternation was calculated as (actual alternations / maximum alternations) × 100 (Maurice et al., 1996; Meunier et al., 2006, 2013). Exclusion criteria are locomotion < 10 or percentage of alternation < 25% or > 90%. Animals showing these readouts are excluded from the calculations. Attrition is routinely < 5% in this test.
Due to the chaperone nature of SIG-1R, a SIG-1R positive modulator behaves as an agonist in vivo, particularly on learning and memory abilities in mice (Maurice et al., 2019; Vavers et al., 2019). Convolamine was tested on Dizocilpine-induced learning impairments, a well-characterized SIG-1R-mediated response in mice (Maurice et al., 1994, 2001). The NMDA receptor noncompetitive antagonist Dizocilpine (0.15 mg/kg IP) prevented spontaneous alternation behavior (Fig. 4A) and increased mobility (Fig. 4B) in the Y-maze. […] Co-treatment with the SIG-1R antagonist NE-100 at 1 mg/kg IP, blocked the attenuating effect of Convolamine (Fig. 4C), thus confirming the SIG-1R-mediated effect.

[3] = system: Dizocilpine-induced learning impairments in mice; assay: Step-through passive avoidance, Dizocilpine-induced learning impairments; assay type: in vivo
Description: The apparatus is a two-compartments (15 × 20 × 15 cm high) box with one illuminated with white polyvinylchloride walls and the other darkened with black polyvinylchloride walls and a grid floor. A guillotine door separates each compartment. A 60 W lamp positioned 40 cm above the apparatus lights up the white compartment during the experiment. Scrambled foot shocks (0.3 mA for 3 s) could be delivered to the grid floor using a shock generator scrambler (Lafayette Instruments, Lafayette, USA). The guillotine door was initially closed during the training session. Each mouse was placed into the white compartment. After 5 s, the door was raised. When the mouse entered the darkened compartment and placed all its paws on the grid floor, the door is closed and the foot shocks delivered for 3 s. The step-through latency (STL-Tg), that is, the latency spent to enter the darkened compartment, and the number of vocalizations were recorded. The retention test was carried out 24 h after training. Each mouse was placed again into the white compartment. After 5 s, the door was raised. The step-through latency (STL-R) was recorded up to 300 s (Meunier et al., 2006, 2013; Villard et al., 2009, 2011). An exclusion criteria was STL-Tg and STL-R < 10 s. Animals showing these readouts are excluded from the calculations. Attrition is routinely < 5% in this test.

[4] = target: T1, SIG-1R/BiP (Homo sapiens, UniProt Q99720); assay: SIG-1R/BiP dissociation assay in GFP-SIG-1R-overexpressing CHO cells; assay type: cell-based; details: compound alone, at concentrations up to 30 µM
T1 construct: host or cells: CHO cells overexpressing GFP-SIG-1R
Experimental: CHO cells which overexpress GFP tagged-SIG-1R (gift from Tsung-Ping Su, NIDA/NIH, Baltimore, MD, USA) were maintained in DMEM/Glutamax culture medium supplemented with 10% heat inactivated FBS. GFP-SIG-1Roe CHO cells were plated in 6-well plates and treated with test compounds dissolved in culture medium for 30 min at 37°C. The reaction was terminated by removing the culture medium containing the test drug and replacing it with 1 ml of PBS. GFP-SIG-1R-oe CHO cells were harvested and suspended in PBS (pH 7.4) followed by cross-linking with 50 µg/ml of dithiobis succinimidyl propionate (ThermoFisher, France). The reaction was stopped by adding Tris/HCl 50 mM (pH 8.8). After a 15 min incubation on ice, cells were lysed with 50 mM Tris (pH 7.4), 150 mM NaCl, 1% Triton X/100, 0.3% sodium deoxycholate, 0.1% SDS buffer containing a protease inhibitor cocktail (Sigma-Aldrich, France). After centrifugation at 16,000 g for 1 min, the supernatant was incubated with Chromotek GFP-trap agarose (Proteintech, United Kingdom) overnight at 4°C.

T1 sequence (Q99720 whole entry): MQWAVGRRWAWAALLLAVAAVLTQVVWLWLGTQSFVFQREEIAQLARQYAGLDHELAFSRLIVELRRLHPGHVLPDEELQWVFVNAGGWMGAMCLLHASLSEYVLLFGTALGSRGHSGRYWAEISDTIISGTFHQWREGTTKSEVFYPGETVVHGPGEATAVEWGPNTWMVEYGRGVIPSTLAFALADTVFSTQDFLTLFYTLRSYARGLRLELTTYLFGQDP

COc1ccc(C(=O)OC2CC3CCC(C2)N3)cc1OC (stereo not drawn) [Convolvine, reference compound]
hyperlocomotor response of wfs1ab^KO zebrafish (in words) [1]: failed to attenuate
Dizocilpine-induced alternation deficit (in words) [2]: significantly attenuated
Dizocilpine-induced decrease in step-through latency (in words) ([3]; at 0.3 mg/kg IP): attenuated, but in a non-significant manner
Dizocilpine-induced increase in escape latency (in words) ([3]; at the highest doses tested (range 0.1-3 mg/kg IP)): attenuated, but in a non-significant manner

CCCN(CCC)CCc1ccc(OC)c(OCCc2ccccc2)c1 [NE-100, reference compound]
dissociation of SIG-1R from BiP (in words) [4]: ineffective
hyperlocomotor response of wfs1ab^KO zebrafish (in words) [1]: failed to affect
